Source: ChEMBL document CHEMBL1128757, “Linear peptide ETA antagonists: rational design and practical derivatization of N-terminal amino- and imino-carbonylated tripeptide derivatives” (Bioorg Med Chem Lett, 1995)

Experiments:
Endothelin-1 receptor [1] = target: T1, Endothelin-1 receptor (Sus scrofa, UniProt Q29010); experiment: Binding affinity against ETA receptor in porcine aortic smooth muscle membrane was determined
T1 sequence (Q29010 whole entry): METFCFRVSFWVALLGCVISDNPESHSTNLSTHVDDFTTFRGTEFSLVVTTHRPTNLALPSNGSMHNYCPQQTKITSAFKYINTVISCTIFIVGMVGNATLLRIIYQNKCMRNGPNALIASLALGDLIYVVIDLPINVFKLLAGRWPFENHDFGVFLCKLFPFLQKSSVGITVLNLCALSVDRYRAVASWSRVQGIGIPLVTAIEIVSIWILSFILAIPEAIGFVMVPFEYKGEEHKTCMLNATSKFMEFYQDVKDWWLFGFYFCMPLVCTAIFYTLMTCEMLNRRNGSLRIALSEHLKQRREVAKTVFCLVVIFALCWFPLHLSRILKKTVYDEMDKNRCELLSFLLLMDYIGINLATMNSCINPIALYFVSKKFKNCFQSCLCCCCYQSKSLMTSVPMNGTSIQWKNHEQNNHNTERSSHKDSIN

Endothelin-1 receptor [2] = target: T1, Endothelin-1 receptor; experiment: Binding affinity determined against ETA receptor in porcine aortic smooth muscle membrane
Endothelin-1 receptor [3] = target: T1, Endothelin-1 receptor; experiment: Binding affinity against ETA receptor in porcine aortic smooth muscle membrane
Endothelin-1 receptor [4] = target: T1, Endothelin-1 receptor; experiment: Antagonistic activity towards ET- l-induced contraction in porcine coronary arteries; type: functional; conditions: read-out: pA2 (converted)

In the case of `CC(C)CC(=O)N[C@@H](CC(C)C)C(=O)N[C@H](Cc1c[nH]c2ccccc12)C(=O)N[C@H](CC(=O)O)C(=O)O`, the IC50 (Endothelin-1 receptor [1]) is reported as 25000 nM.

`CC(C)C[C@H](NC(=O)[C@H](N)C(C)C)C(=O)N[C@H](Cc1c[nH]c2ccccc12)C(=O)N[C@H](CC(=O)O)C(=O)O` gave an IC50 (Endothelin-1 receptor [1]) of 32000 nM.

Work on `CC(C)C[C@H](NC(=O)OC(C)(C)C)C(=O)NC(Cc1c[nH]c2ccccc12)C(=O)NCCC(=O)O` (single isomer, unassigned) yielded an IC50 max (Endothelin-1 receptor [2]) of 270 nM and an IC50 (Endothelin-1 receptor [3]) of 420 nM.

`CC(C)C[C@H](NC(=O)N1CCCCC1)C(=O)NC(Cc1c[nH]c2ccccc12)C(=O)NCCC(=O)O` (single isomer, unassigned) showed an IC50 max (Endothelin-1 receptor [2]) of 81 nM.

`CC(C)C[C@H](NC(=O)N(CCO)C(C)(C)C)C(=O)NC(Cc1c[nH]c2ccccc12)C(=O)NCCC(=O)O` (single isomer, unassigned) showed an IC50 max (Endothelin-1 receptor [2]) of 53 nM.

Molecule `CC(C)C[C@H](NC(=O)N1CCCC1)C(=O)NC(Cc1c[nH]c2ccccc12)C(=O)NCCC(=O)O` (single isomer, unassigned) has an IC50 max (Endothelin-1 receptor [2]) of 310 nM.

`CC(C)C[C@H](NC(=O)Cc1cccs1)C(=O)NC(Cc1c[nH]c2ccccc12)C(=O)NCCC(=O)O` (single isomer, unassigned) was tested, and the IC50 max (Endothelin-1 receptor [2]) was 420 nM and the IC50 (Endothelin-1 receptor [3]) was 540 nM.

`CC(C)C[C@H](NC(=O)N1CCCCCCCCC1)C(=O)NC(Cc1c[nH]c2ccccc12)C(=O)NCCC(=O)O` (single isomer, unassigned) was tested, and the IC50 max (Endothelin-1 receptor [2]) was 55 nM.

`CC(C)C[C@H](NC(=O)CC(C)(C)C)C(=O)NC(Cc1c[nH]c2ccccc12)C(=O)NCCC(=O)O` (single isomer, unassigned) was tested, and the IC50 (Endothelin-1 receptor [3]) was 6700 nM.

`Cc1cccc(NC(=O)N[C@@H](CC(C)C)C(=O)NC(Cc2c[nH]c3ccccc23)C(=O)NCCC(=O)O)c1` (single isomer, unassigned) showed an IC50 (Endothelin-1 receptor [3]) of 2100 nM.

Work on `CC(C)C[C@H](NC(=O)N1C(C)CCCC1C)C(=O)NC(Cc1c[nH]c2ccccc12)C(=O)NCCC(=O)O` (single isomer, unassigned) yielded an IC50 max (Endothelin-1 receptor [2]) of 51 nM.

`CC(C)C[C@H](NC(=O)NCc1ccccc1)C(=O)NC(Cc1c[nH]c2ccccc12)C(=O)NCCC(=O)O` (single isomer, unassigned) gave an IC50 (Endothelin-1 receptor [3]) of 3200 nM.

`CC(C)C[C@H](NC(=O)N1CCC(C)CC1)C(=O)NC(Cc1c[nH]c2ccccc12)C(=O)NCCC(=O)O` (single isomer, unassigned) showed an IC50 max (Endothelin-1 receptor [2]) of 580 nM.

`CC(C)CC(=O)N[C@@H](CC(C)C)C(=O)NC(Cc1c[nH]c2ccccc12)C(=O)NCCC(=O)O` (single isomer, unassigned) gave an IC50 (Endothelin-1 receptor [1]) of 3900 nM.

Work on `CC(C)C[C@H](NC(=O)CC1CCCC1)C(=O)NC(Cc1c[nH]c2ccccc12)C(=O)NCCC(=O)O` (single isomer, unassigned) yielded an IC50 max (Endothelin-1 receptor [2]) of 620 nM and an IC50 (Endothelin-1 receptor [3]) of 970 nM.

Molecule `CC(C)C[C@H](NC(=O)NC(C)(C)C)C(=O)NC(Cc1c[nH]c2ccccc12)C(=O)NCCC(=O)O` (single isomer, unassigned) has an IC50 max (Endothelin-1 receptor [2]) of 150 nM and an IC50 (Endothelin-1 receptor [3]) of 230 nM.

With `CC(C)C[C@H](NC(=O)N1CCc2ccccc2C1)C(=O)NC(Cc1c[nH]c2ccccc12)C(=O)NCCC(=O)O` (single isomer, unassigned) the IC50 max (Endothelin-1 receptor [2]) was 530 nM.

For `CC(C)C[C@H](NC(=O)N1CCCCCC1)C(=O)NC(Cc1c[nH]c2ccccc12)C(=O)NCCC(=O)O` (single isomer, unassigned), the IC50 max (Endothelin-1 receptor [2]) was 61 nM and the Kb (Endothelin-1 receptor [4]) was 60.3 nM.

`CC(C)C[C@H](NC(=O)NC12CC3CC(CC(C3)C1)C2)C(=O)NC(Cc1c[nH]c2ccccc12)C(=O)NCCC(=O)O` (single isomer, unassigned) showed an IC50 max (Endothelin-1 receptor [2]) of 330 nM.

In the case of `CC(C)C[C@H](NC(=O)Nc1cccc(Cl)c1)C(=O)NC(Cc1c[nH]c2ccccc12)C(=O)NCCC(=O)O` (single isomer, unassigned), the IC50 (Endothelin-1 receptor [3]) is reported as 2100 nM.

Molecule `CC(C)C[C@H](NC(=O)N(C(C)C)C(C)C)C(=O)NC(Cc1c[nH]c2ccccc12)C(=O)NCCC(=O)O` (single isomer, unassigned) has an IC50 max (Endothelin-1 receptor [2]) of 57 nM.

Molecule `CC(C)C[C@H](NC(=O)NCC(C)(C)C)C(=O)NC(Cc1c[nH]c2ccccc12)C(=O)NCCC(=O)O` (single isomer, unassigned) has an IC50 max (Endothelin-1 receptor [2]) of 560 nM.

`CC(C)C[C@H](NC(=O)N1C(C)(C)CCCC1(C)C)C(=O)NC(Cc1c[nH]c2ccccc12)C(=O)NCCC(=O)O` (single isomer, unassigned) was tested, and the IC50 max (Endothelin-1 receptor [2]) was 190 nM.
